Test results reported in US10485235B2, “Aryloxypyrimidinyl ethers as herbicides” (FMC Corporation, priority 2015, dated 2019).

Tests used:
Assay type in all cases: in vivo
[1] = test system: ducksalad (Heteranthera limosa); test: Test B flooded paddy test, ducksalad; conditions: 250 g ai/ha, Flood; visual rating after 13 to 15 days; scale 0 to 100, 0 is no effect, 100 is complete control
Procedure, shortened: (§1)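 Plants grown to 2-leaf stage, pots flooded to 3 cm above soil and compound applied directly to paddy water, depth maintained throughout. After 13-15 days in greenhouse, visual rating against untreated controls on 0-100 scale (0 no effect, 100 complete control).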

[2] = test system: barnyardgrass (Echinochloa crus-galli); test: Test A preemergence, barnyardgrass; conditions: Preemergence, 0 to 100 scale (0 no effect, 100 complete control)
Procedure, shortened: (§2)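 Injury was assessed visually about ten days after application, relative to untreated plants, with 0 meaning no effect and 100 complete control. Treatments were soil-directed sprays after sowing (pre) or sprays on seedlings at one to two leaves (post), in loam soil/sand.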

kochia (Kochia scoparia) [3] = test: Test A preemergence, kochia; conditions: Preemergence, 0 to 100 scale (0 no effect, 100 complete control)
Procedure, shortened: as §2

[4] = test system: wheat (Triticum aestivum); test: Test A postemergence, wheat; conditions: postemergence, 0 to 100 scale, 0 is no effect, 100 is complete control, approximately 10 days
Procedure, shortened: as §2

[5] = test system: foxtail, giant (giant foxtail, Setaria faberii); test: Test A postemergence, giant foxtail; conditions: postemergence, 0 to 100 scale, 0 is no effect, 100 is complete control, approximately 10 days
Procedure, shortened: as §2

[6] = test system: barnyardgrass (Echinochloa crus-galli); test: Test B flooded paddy test, barnyardgrass; conditions: 250 g ai/ha, Flood; visual rating after 13 to 15 days; scale 0 to 100, 0 is no effect, 100 is complete control
Procedure, shortened: as §1

corn (Zea mays) = test: Test A postemergence, corn; conditions: postemergence, 0 to 100 scale, 0 is no effect, 100 is complete control, approximately 10 days
Procedure, shortened: as §2

[7] = test system: blackgrass (Alopecurus myosuroides); test: Test A postemergence, blackgrass; conditions: postemergence, 0 to 100 scale, 0 is no effect, 100 is complete control, approximately 10 days
Procedure, shortened: as §2

[8] = test system: ryegrass, Italian (Italian ryegrass, Lolium multiflorum); test: Test A preemergence, Italian ryegrass; conditions: Preemergence, 0 to 100 scale (0 no effect, 100 complete control)
Procedure, shortened: as §2

[9] = test system: galium (catchweed bedstraw, Galium aparine); test: Test A postemergence, galium; conditions: postemergence, 0 to 100 scale, 0 is no effect, 100 is complete control, approximately 10 days
Procedure, shortened: as §2

kochia (Kochia scoparia) [10] = test: Test A postemergence, kochia; conditions: postemergence, 0 to 100 scale, 0 is no effect, 100 is complete control, approximately 10 days
Procedure, shortened: as §2

[11] = test system: ryegrass, Italian (Italian ryegrass, Lolium multiflorum); test: Test A postemergence, Italian ryegrass; conditions: postemergence, 0 to 100 scale, 0 is no effect, 100 is complete control, approximately 10 days
Procedure, shortened: as §2

[12] = test system: pigweed (Amaranthus retroflexus); test: Test A postemergence, pigweed; conditions: postemergence, 0 to 100 scale, 0 is no effect, 100 is complete control, approximately 10 days
Procedure, shortened: as §2

[13] = test system: sedge, umbrella (small-flower umbrella sedge, Cyperus difformis); test: Test B flooded paddy test, umbrella sedge; conditions: 250 g ai/ha, Flood; visual rating after 13 to 15 days; scale 0 to 100, 0 is no effect, 100 is complete control
Procedure, shortened: as §1

rice (Oryza sativa) = test: Test B flooded paddy test, rice; conditions: 250 g ai/ha, Flood; visual rating after 13 to 15 days; scale 0 to 100, 0 is no effect, 100 is complete control
Procedure, shortened: as §1

[14] = test system: ragweed (common ragweed, Ambrosia elatior); test: Test A postemergence, ragweed; conditions: postemergence, 0 to 100 scale, 0 is no effect, 100 is complete control, approximately 10 days
Procedure, shortened: as §2

[15] = test system: foxtail, giant (giant foxtail, Setaria faberii); test: Test A preemergence, giant foxtail; conditions: Preemergence, 0 to 100 scale (0 no effect, 100 complete control)
Procedure, shortened: as §2

[16] = test system: pigweed (Amaranthus retroflexus); test: Test A preemergence, pigweed; conditions: Preemergence, 0 to 100 scale (0 no effect, 100 complete control)
Procedure, shortened: as §2

[17] = test system: barnyardgrass (Echinochloa crus-galli); test: Test A postemergence, barnyardgrass; conditions: postemergence, 0 to 100 scale, 0 is no effect, 100 is complete control, approximately 10 days
Procedure, shortened: as §2

[18] = test system: ragweed (common ragweed, Ambrosia elatior); test: Test A preemergence, ragweed; conditions: Preemergence, 0 to 100 scale (0 no effect, 100 complete control)
Procedure, shortened: as §2

| Compound | Plant response rating, Ducksalad [1] | Plant response rating, Barnyardgrass ([2]; 125 g ai/ha) | Plant response rating, Kochia (kochia (Kochia scoparia) [3]; 125 g ai/ha) | Plant response rating, Wheat ([4]; 125 g ai/ha) | Plant response rating, Foxtail, Giant ([5]; 125 g ai/ha) | Plant response rating, Barnyardgrass [6] | Plant response rating, Corn (corn (Zea mays); 125 g ai/ha) | Plant response rating, Blackgrass ([7]; 125 g ai/ha) | Plant response rating, Ryegrass, Italian ([8]; 125 g ai/ha) | Plant response rating, Galium ([9]; 125 g ai/ha) | Plant response rating, Kochia (kochia (Kochia scoparia) [10]; 125 g ai/ha) | Plant response rating, Ryegrass, Italian ([11]; 125 g ai/ha) | Plant response rating, Pigweed ([12]; 125 g ai/ha) | Plant response rating, Sedge, Umbrella [13] | Plant response rating, Rice (rice (Oryza sativa)) | Plant response rating, Ragweed ([14]; 125 g ai/ha) | Plant response rating, Foxtail, Giant ([15]; 125 g ai/ha) | Plant response rating, Pigweed ([16]; 125 g ai/ha) | Plant response rating, Barnyardgrass ([17]; 125 g ai/ha) | Plant response rating, Ragweed ([18]; 125 g ai/ha) | other results |
| --- | --- | --- | --- | --- | --- | --- | --- | --- | --- | --- | --- | --- | --- | --- | --- | --- | --- | --- | --- | --- | --- |
| CCCOc1c(C#N)cccc1Oc1ncc(Cl)cn1 [Compound 50] | 50 | 20 | 100 | 0 | 20 | 30 | 10 | 10 | 0 | 40 | 80 | 0 | 70 | 60 | 0 | 10 | 90 | 100 | 20 | 0 | Plant response rating, Barnyardgrass ([2]; 31 g ai/ha): 10; Plant response rating, Kochia (kochia (Kochia scoparia) [3]; 31 g ai/ha): 20; Plant response rating, Wheat ([4]; 31 g ai/ha): 0; Plant response rating, Foxtail, Giant ([5]; 31 g ai/ha): 0; Plant response rating, Corn (corn (Zea mays); 31 g ai/ha): 10; Plant response rating, Blackgrass ([7]; 31 g ai/ha): 0; Plant response rating, Ryegrass, Italian ([8]; 31 g ai/ha): 0; Plant response rating, Galium ([9]; 31 g ai/ha): 10; Plant response rating, Kochia (kochia (Kochia scoparia) [10]; 31 g ai/ha): 20; Plant response rating, Ryegrass, Italian ([11]; 31 g ai/ha): 0; Plant response rating, Pigweed ([12]; 31 g ai/ha): 20; Plant response rating, Ragweed ([14]; 31 g ai/ha): 10; Plant response rating, Foxtail, Giant ([15]; 31 g ai/ha): 10; Plant response rating, Pigweed ([16]; 31 g ai/ha): 20; Plant response rating, Barnyardgrass ([17]; 31 g ai/ha): 0; Plant response rating, Ragweed ([18]; 31 g ai/ha): 0 |
| CC(C)CCCOc1c(Br)cccc1Oc1ncc(Cl)cn1 [Compound 11] | 0 | 20 | 0 | 0 | 20 | 0 | 30 | 0 | 0 | 70 | 20 | 0 | 60 | 0 | 0 | 0 | 90 | 0 | 10 | 0 | Plant response rating, Barnyardgrass ([2]; 500 g ai/ha): 90; Plant response rating, Kochia (kochia (Kochia scoparia) [3]; 500 g ai/ha): 0; Plant response rating, Wheat ([4]; 500 g ai/ha): 20; Plant response rating, Foxtail, Giant ([5]; 500 g ai/ha): 60; Plant response rating, Corn (corn (Zea mays); 500 g ai/ha): 30; Plant response rating, Blackgrass ([7]; 500 g ai/ha): 40; Plant response rating, Ryegrass, Italian ([8]; 500 g ai/ha): 30; Plant response rating, Galium ([9]; 500 g ai/ha): 100; Plant response rating, Kochia (kochia (Kochia scoparia) [10]; 500 g ai/ha): 90; Plant response rating, Ryegrass, Italian ([11]; 500 g ai/ha): 20; Plant response rating, Pigweed ([12]; 500 g ai/ha): 100; Plant response rating, Ragweed ([14]; 500 g ai/ha): 0; Plant response rating, Foxtail, Giant ([15]; 500 g ai/ha): 100; Plant response rating, Pigweed ([16]; 500 g ai/ha): 80; Plant response rating, Barnyardgrass ([17]; 500 g ai/ha): 90; Plant response rating, Ragweed ([18]; 500 g ai/ha): 0 |
